The test can be described thus: In vitro binding affinity using [3H]LTB4 radioligand binding to leukotriene B4 receptor in human neutrophil binding assay.

The structures appear in SMILES notation.

The term Ki denotes a measure of affinity in units of concentration, obtained from inhibition or displacement. A high value points to lower affinity. In turn, `CCCc1c(OCCCOc2cc(O)c(OC)cc2CC)ccc2c1OC(C(=O)O)CC2` (configuration not stated) [7-[3-(2-Ethyl-5-hydroxy-4-methoxy-phenoxy)-propoxy]-8-propyl-chroman-2-carboxylic acid] came in with an inhibitory constant (Ki) of 1.9 nM.

Molecule `CCCc1c(OCCCOc2cc(O)c(OCC)cc2CC)ccc2c1OC(C(=O)O)CC2` (configuration not stated) [7-[3-(4-Ethoxy-2-ethyl-5-hydroxy-phenoxy)-propoxy]-8-propyl-chroman-2-carboxylic acid] had a Ki of 3.5 nM.

For the origin of these results see BindingDB's records for doi:10.1016/S0960-894X(00)80454-0 (1992).
